What all share (format): cell-based
The target of experiment [1] is T1, M4 muscarinic receptor (Homo sapiens, UniProt P08173).
T1 construct: expressed in transfected cells; host or cells: CHO (M4-CHO)
T1 sequence (P08173 1-479): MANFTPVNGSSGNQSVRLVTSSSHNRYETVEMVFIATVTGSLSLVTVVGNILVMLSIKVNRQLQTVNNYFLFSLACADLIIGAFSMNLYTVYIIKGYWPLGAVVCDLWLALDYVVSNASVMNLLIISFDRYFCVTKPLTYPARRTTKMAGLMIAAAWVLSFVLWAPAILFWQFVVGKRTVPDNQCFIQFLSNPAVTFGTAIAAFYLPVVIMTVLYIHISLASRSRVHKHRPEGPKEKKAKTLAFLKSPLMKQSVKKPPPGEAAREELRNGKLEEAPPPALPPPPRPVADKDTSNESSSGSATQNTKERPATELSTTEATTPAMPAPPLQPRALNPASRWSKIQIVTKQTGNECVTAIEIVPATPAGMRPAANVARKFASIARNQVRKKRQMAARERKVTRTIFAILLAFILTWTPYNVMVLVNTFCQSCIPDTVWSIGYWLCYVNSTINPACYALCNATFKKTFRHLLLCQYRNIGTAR
In words: Functional mobilization of intracellular calcium (FLIPR), M4-CHO cells. Particulars: for Emax: 100% efficacy is the maximum response obtained with the Carbachol control; for M4 Activity: CHO cells expressing M4, calcium mobilization. The procedure:
(§1) Functional Mobilization of Intracellular Calcium to Determine Muscarinic Receptor Activity:
(§2) CHO cells expressing muscarinic receptors (M1 to M5) are grown as monolayers in tissue culture flasks at 37° C. in a humidified atmosphere containing 5% CO2 and passaged every 3-5 days. The growth media is Dulbecco's modified eagles medium (DMEM, Gibco Cat# 12430-054), containing 25 mM Hepes and supplemented with Fetal Bovine Serum (Hyclone, cat# SH30071.03), 0.1 mM of MEM non-essential amino acids (GIBCO, Cat# 11140-050), 1 mM MEM Sodium Pyruvate (GIBCO Cat# 11360-070) and 100 units/ml of Penicillin G and 100 μg/ml of Streptomycin (GIBCO Cat# 15140-122). The recombinant muscarinic receptor cell lines are grown under antibiotic pressure with media containing 25 μg/ml zeocin and 500 μg/ml G418 (M1-CHO), 4 μg/ml puromycin, 50 μg/ml zeocin and 2.5 μg/ml blasticidin (M2 and M4-CHO) or 50 μg/ml zeocin and 4 μg/ml puromycin (M3 and M5-CHO).
(§3) Cells are harvested at 80-90% confluence using Versene (GIBCO Cat# 15040-066), collected by centrifugation and seeded 18-24 hours prior to running the calcium assay at a density of 5,000-10,000 cells/well in […], clear-bottomed 384-well plates (BD Biocoat, poly-D-lysine, Cat#356663). The day of the experiment, the cells are washed with a plate washer (Bioteck Instruments, ELX 405) using Bath 1 buffer (140-mM NaCl, 4.5-mM KCl, 2-mM CaCl2, 1-mM MgCl2, 10-mM Hepes-Na, 10-mM Glucose, pH 7.4, with NaOH) containing 1 mM Probenecid. Next, the calcium dye Fluo-3 (25 μl/well of Fluo-3 AM at 4 μM, Molecular Probes F-1241, in Bath 1 buffer containing 1 mM Probenecid) is added to the 25 μl of Bath 1 remaining in each well after the plate wash and the dye is loaded at 37° C. in the tissue culture incubator for 60-90 min. The fluorescent dye is removed using the plate washer with Bath 1 containing 1 mM Probenecid, leaving 25 μl/well of this solution after the wash. Alternatively, cells can be loaded with the calcium indicator from Molecular Devices (Calcium 3 Assay Reagents, Cat # R7181) adding 5 μl of a 5× solution dye in Bath 1 containing 1 mM Probenecid (10 ml per dye flask cat# R7182 to generate a solution 20×) to 20 μl of the same buffer. After loading for 60 min, the experiment can be run without having to remove the dye.
(§4) Compounds are prepared at a 2× fold concentration in a 96-well plate (round bottom, Costar Corning cat# 3656), by reconstituting the pre-spotted compounds in bath 1 containing 1 mM probenecid. The final concentration DMSO is 0.5%, and the amount of DMSO is normalized across the assay plate. To determine an agonist action of the compounds on muscarinic receptors, the reconstituted compounds are added (25 μl compound/well) to the cell assay plate (containing 25 μl/well) using the multi-channel robotic system of the FLIPR 3 Instrument (Molecular Devices, Sunnyvale, Calif.). To determine a functional inhibitory action of the compounds on muscarinic receptors, the reconstituted compounds are added (25 μl compound/well) to the assay plate and pre-incubated for 15 min prior to adding 25 μl of Carbachol at 3× the EC80 for each muscarinic subtype. Alternatively, the compounds can be co-applied simultaneously with the agonist. In both assay modes, the fluorescence is recorded for 60 sec (excitation wavelength is […] and emission wavelength 540 nm) using the FLIPR 3 instrument.
(§5) The potency, efficacy and selectivity of the muscarinic compounds were evaluated by screening the compound activity across the whole family (M1 to M5 cells). Compounds were also screened for activity on other proteins such as other GPCRs and ion channels to determine selectivity on M4 receptors.
(§6) Examples of activities and efficacies of the muscarinic compounds of formulae (I, Ia, Ib, Ic, and Id) on modulating M1 and M4 receptors are shown below in Table 3. […]
On the technique in general: A change in cytosolic calcium serves as a functional read-out for many receptors and channels.

Experiment [2] concerns the target T2, M2 muscarinic receptor (Homo sapiens, UniProt P08172).
T2 construct: expressed in transfected cells; host or cells: CHO (M2-CHO)
T2 sequence (P08172 1-466): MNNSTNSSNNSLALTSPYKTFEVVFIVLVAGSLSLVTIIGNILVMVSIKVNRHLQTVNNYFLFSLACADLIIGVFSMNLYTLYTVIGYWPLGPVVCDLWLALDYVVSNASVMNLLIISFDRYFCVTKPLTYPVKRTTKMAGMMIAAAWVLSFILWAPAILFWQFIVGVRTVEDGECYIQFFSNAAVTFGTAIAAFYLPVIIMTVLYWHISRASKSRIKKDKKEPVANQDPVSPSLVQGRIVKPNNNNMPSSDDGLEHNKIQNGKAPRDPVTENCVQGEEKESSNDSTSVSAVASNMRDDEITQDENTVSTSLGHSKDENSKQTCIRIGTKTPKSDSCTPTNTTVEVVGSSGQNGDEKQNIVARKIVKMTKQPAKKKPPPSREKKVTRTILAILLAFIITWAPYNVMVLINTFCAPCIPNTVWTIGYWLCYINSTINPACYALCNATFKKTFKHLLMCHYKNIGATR
In words: Functional mobilization of intracellular calcium (FLIPR), M2-CHO cells. To be noted: for Emax: 100% efficacy is the maximum response obtained with the Carbachol control; for M2 Activity: CHO cells expressing M2, calcium mobilization. As to the method:
as §1, §2, §3, §4, §5, §6

In experiment [3] the target is T3, M1 muscarinic receptor (Homo sapiens, UniProt P11229).
T3 construct: expressed in transfected cells; host or cells: CHO (M1-CHO)
T3 sequence (P11229 1-460): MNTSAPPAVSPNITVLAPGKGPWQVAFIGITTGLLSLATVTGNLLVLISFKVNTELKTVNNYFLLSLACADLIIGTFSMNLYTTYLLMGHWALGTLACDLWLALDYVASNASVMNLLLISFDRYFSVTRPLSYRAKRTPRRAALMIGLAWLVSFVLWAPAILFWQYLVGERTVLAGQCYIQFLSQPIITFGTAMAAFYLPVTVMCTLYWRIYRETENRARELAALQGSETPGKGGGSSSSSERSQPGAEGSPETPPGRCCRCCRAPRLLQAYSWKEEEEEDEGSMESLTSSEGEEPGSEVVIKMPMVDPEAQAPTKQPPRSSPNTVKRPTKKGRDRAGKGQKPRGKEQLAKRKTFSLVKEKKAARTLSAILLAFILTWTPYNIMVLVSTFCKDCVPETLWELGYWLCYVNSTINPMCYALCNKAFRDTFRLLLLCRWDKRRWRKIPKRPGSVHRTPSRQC
The experiment in a line: Functional mobilization of intracellular calcium (FLIPR), M1-CHO cells. Particulars: for Emax: 100% efficacy is the maximum response obtained with the Carbachol control; for M1 Activity: CHO cells expressing M1, calcium mobilization. The procedure:
as §1, §2, §3, §4, §5, §6

Experiment [4] has as its target T4, M3 muscarinic receptor (Homo sapiens, UniProt P20309).
T4 construct: expressed in transfected cells; host or cells: CHO (M3-CHO)
In words: Functional mobilization of intracellular calcium (FLIPR), M3-CHO cells. Particulars: for Emax: 100% efficacy is the maximum response obtained with the Carbachol control; for M3 Activity: CHO cells expressing M3, calcium mobilization. As to the method: as §1, §2, §3, §4, §5, §6

T4 sequence (P20309 whole entry): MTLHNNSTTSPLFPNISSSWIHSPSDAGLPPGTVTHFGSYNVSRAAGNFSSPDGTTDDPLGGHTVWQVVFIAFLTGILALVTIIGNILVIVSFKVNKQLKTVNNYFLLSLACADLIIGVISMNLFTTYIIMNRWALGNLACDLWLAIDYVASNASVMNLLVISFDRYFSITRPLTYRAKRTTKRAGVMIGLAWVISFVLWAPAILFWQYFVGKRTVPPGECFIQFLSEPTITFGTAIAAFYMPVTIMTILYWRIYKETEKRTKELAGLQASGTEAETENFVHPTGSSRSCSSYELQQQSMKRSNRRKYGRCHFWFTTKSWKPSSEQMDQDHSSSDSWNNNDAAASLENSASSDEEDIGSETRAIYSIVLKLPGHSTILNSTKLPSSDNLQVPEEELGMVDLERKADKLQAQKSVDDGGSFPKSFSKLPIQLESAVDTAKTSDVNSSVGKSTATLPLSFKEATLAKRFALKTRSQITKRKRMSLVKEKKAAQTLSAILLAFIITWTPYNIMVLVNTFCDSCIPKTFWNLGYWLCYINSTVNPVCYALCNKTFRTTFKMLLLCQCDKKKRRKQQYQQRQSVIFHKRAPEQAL

One may read the Emax as the greatest response seen or fitted, relative to the assay's reference. As to `CCON=C1CCC(N2CCC3(CC2)OC(=O)Nc2ccccc23)CC1` (centres unmarked) [Compound 3, 1′-(4-(ethoxyimino)cyclohexyl)spiro[benzo[d][1,3]oxazine-4,4′-piperidin]-2(1H)-one], in experiment [1], the Emax lay within 25 to 100% and the “M4 Activity” value was “+++ (activity was measured to be less than 2.0 μM)”. In experiment [2], the Emax was in the range of 25 to 100% and the “M2 Activity” value is given as “+++ (activity was measured to be less than 2.0 μM)”. In experiment [3], the maximum response (Emax) lay in the range of 25 to 100% and the “M1 Activity” value is on record as “+++ (activity was measured to be less than 2.0 μM)”. Further, in experiment [4], the Emax lay in the range of 25 to 100% and the “M3 Activity” value was “+++ (activity was measured to be less than 2.0 μM)”.
On to `O=C1Nc2ccccc2C2(CCN(C3CCCCCC3)CC2)O1` [Compound 5, 1′-cycloheptylspiro[benzo[d][1,3]oxazine-4,4′-piperidin]-2(1H)-one], for which, in experiment [1], the Emax is 25 to 100% and the “M4 Activity” value is listed as “+++ (activity was measured to be less than 2.0 μM)”. In addition, in experiment [2], the Emax fell in the range of 25 to 100% and the “M2 Activity” value is “+ (activity was measured to be greater than 5.0 μM)”. In experiment [3], the Emax lay within 25 to 100% and the “M1 Activity” value was “+++ (activity was measured to be less than 2.0 μM)”. Further, in experiment [4], the maximal response (Emax) was under 25% and the “M3 Activity” value was “+ (activity was measured to be greater than 5.0 μM)”.
With `O=C1Nc2ccccc2C2(CCN(CC3CCCOC3)CC2)O1` (centres unmarked) [Compound 11], in experiment [1], the Emax fell in the range of 25 to 100% and the “M4 Activity” value is reported as “+++ (activity was measured to be less than 2.0 μM)”. For the same molecule, in experiment [2], the Emax lay within 25 to 100% and the “M2 Activity” value was “+ (activity was measured to be greater than 5.0 μM)”. In addition, in experiment [3], the Emax lay within 25 to 100% and the “M1 Activity” value was “+++ (activity was measured to be less than 2.0 μM)”. In addition, in experiment [4], the Emax is under 25% and the “M3 Activity” value is on record as “+ (activity was measured to be greater than 5.0 μM)”.
As for `CCOC(=O)N1CCC(CN2CCC3(CC2)OC(=O)Nc2ccccc23)CC1` [Compound 13, ethyl-4-((2-oxo-1,2-dihydrospiro[benzo[d][1,3]oxazine-4,4′-piperidine]-1′-yl)methyl)piperidine-1-carboxylate], in experiment [1], the Emax was 25 to 100% and the “M4 Activity” value is “+++ (activity was measured to be less than 2.0 μM)”. For the same molecule, in experiment [2], the Emax lay in the range of 25 to 100% and the “M2 Activity” value was “+++ (activity was measured to be less than 2.0 μM)”. Moreover, in experiment [3], the maximal effect (Emax) lay within 25 to 100% and the “M1 Activity” value is listed as “+++ (activity was measured to be less than 2.0 μM)”. In experiment [4], the Emax was 25 to 100% and the “M3 Activity” value is reported as “+++ (activity was measured to be less than 2.0 μM)”.
With `O=C1Nc2ccccc2C2(CCN(CC3CCCCC3)CC2)O1` [Compound 27], in experiment [1], the Emax was in the range of 25 to 100% and the “M4 Activity” value was “+++ (activity was measured to be less than 2.0 μM)”. Further, in experiment [2], the Emax is 25 to 100% and the “M2 Activity” value is on record as “++ (activity was measured to be from 2.0 μM to 5.0 μM)”. Besides, in experiment [3], the maximal response (Emax) was 25 to 100% and the “M1 Activity” value is recorded as “+++ (activity was measured to be less than 2.0 μM)”. In addition, in experiment [4], the Emax was under 25% and the “M3 Activity” value was “+ (activity was measured to be greater than 5.0 μM)”.
On to `CCC(C)(C)C1CCC(N2CCC3(CC2)OC(=O)Nc2ccccc23)CC1` (centres unmarked) [Compound 35], for which, in experiment [1], the Emax is under 25% and the “M4 Activity” value is on record as “+ (activity was measured to be greater than 5.0 μM)”. In experiment [2], the Emax was under 25% and the “M2 Activity” value was “+ (activity was measured to be greater than 5.0 μM)”. For the same molecule, in experiment [3], the Emax was in the range of 25 to 100% and the “M1 Activity” value is “+++ (activity was measured to be less than 2.0 μM)”. Further, in experiment [4], the Emax is under 25% and the “M3 Activity” value was “+ (activity was measured to be greater than 5.0 μM)”.
`O=C1Nc2ccccc2C2(CCN(C3CCNCC3)CC2)O1` [Compound 49, 1′-(piperidin-4-yl)spiro[benzo[d][1,3]oxazine-4,4′-piperidin]-2(1H)-one]: in experiment [1], the Emax is under 25% and the “M4 Activity” value is reported as “+ (activity was measured to be greater than 5.0 μM)”. In experiment [2], the Emax was under 25% and the “M2 Activity” value is “+ (activity was measured to be greater than 5.0 μM)”. In addition, in experiment [3], the Emax is 25 to 100% and the “M1 Activity” value is “+ (activity was measured to be greater than 5.0 μM)”. In addition, in experiment [4], the maximal effect (Emax) was under 25% and the “M3 Activity” value is recorded as “+ (activity was measured to be greater than 5.0 μM)”.

For the origin of these results see patent US7696201B2, “Modulators of muscarinic receptors” (Vertex Pharmaceuticals Incorporated, priority 2006, dated 2010).
